Here are results for three molecules from paper PMC7751257 (mBio, 2020).

For data set [1], the system named is pseudovirus NL4-3.Luc.R-E-/VSV-G. As to conditions: 24 h.
For data set [2] the following is noted: reported for the control stapled peptide; cited from earlier work.
The subject of data set [3] is pseudovirus NL4-3.Luc.R-E-/VSV-G. As to conditions: 48 h.
Data set [4] has as its system pseudovirus NL4-3ΔEnv-NanoLuc/SARS-CoV-2. The following applies: 24 h.
The test system is the same in data set [5]. The following applies: 48 h.
Data set [6] is described as follows: Proteolytic stability in human plasma. The following applies: pooled human plasma, pH 7.4, 2 μM, 37°C, time points 0, 10, 30, 60, 120 min, LC-MS/MS, duplicate.
The nature of data set [7]: α-Helical propensity by CD spectroscopy. In kind it is physicochemical. As to conditions: 0.125 mg/ml peptide in 10 mM PBS, 25°C, 185 to 260 nm, calculated with CDNN software.
Data set [8] deals with SARS-CoV-2 (US_WA-1/2020). In kind it is cell-based.

Read-outs that look alike come from different tables or passages of the source. Bridge positions count the residues as written; N and C are the ends. Square brackets hold non-standard residues; d marks the D form. Peptide text beside a SMILES is read from it. S5 = C=CCCC[C@](C)(N)C(=O)O Some results are limits rather than exact numbers.

Consider `CC(=O)N[C@@H](CC(=O)O)C(=O)N[C@@H](CC(N)=O)C(=O)N[C@@H](CCC(=O)O)C(=O)N[C@@]1(C)CCC/C=C\CCC[C@@](C)(C(=O)N[C@@H](Cc2ccc(O)cc2)C(=O)N[C@@H](Cc2c[nH]cn2)C(=O)N[C@@H](CC(C)C)C(=O)N[C@@]2(C)CCC/C=C\CCC[C@@](C)(C(=O)N[C@H](C(N)=O)C(C)C)NC(=O)[C@H](CC(N)=O)NC(=O)[C@H](Cc3ccccc3)NC(=O)[C@H](Cc3ccccc3)NC2=O)NC(=O)[C@H](Cc2ccccc2)NC(=O)[C@H](Cc2c[nH]c3ccccc23)NC(=O)[C@H](CCC(N)=O)NC1=O` [StRIP16] (Ac-DNE[S5]QWF[S5]YHL[S5]FFN[S5]V-NH2; staple (Z) 4-8, 12-16), for which the IC50 in data set [1], in data set [3], in data set [4] and in data set [5] was > 43.5 µM in each case. Besides, the “% helicity” value in data set [2] is recorded as 38%.
As for `CC(C)[N+](C)(CCOC(=O)C1c2ccccc2Oc2ccccc21)C(C)C` [Propantheline bromide, propantheline bromide], the “half-life (T1/2) in human plasma” value in data set [6] is reported as 8 min.
On to `CC[C@H](C)[C@H](NC(=O)[C@@H](NC(C)=O)[C@@H](C)O)C(=O)N[C@@H](CCC(=O)O)C(=O)N[C@@H](CCC(=O)O)C(=O)N[C@@H](CCC(N)=O)C(=O)N[C@@H](C)C(=O)N[C@@H](CCCCN)C(=O)N[C@H](C(=O)N[C@@]1(C)CCC/C=C\CCC[C@@](C)(C(=O)N[C@@H](CC(N)=O)C(=O)N[C@@H](Cc2c[nH]cn2)C(=O)N[C@@H](CCC(=O)O)C(=O)N[C@@H](C)C(=O)N[C@@H](CCC(=O)O)C(=O)N[C@@H](CC(=O)O)C(=O)N[C@@H](CC(C)C)C(=O)N[C@@H](Cc2ccccc2)C(=O)N[C@@H](Cc2ccc(O)cc2)C(=O)N[C@@H](CCC(N)=O)C(=O)N[C@@]2(C)CCC/C=C\CCC[C@@](C)(C(=O)N[C@@H](Cc3c[nH]c4ccccc34)C(=O)N[C@@H](CC(N)=O)C(N)=O)NC(=O)[C@H](C)NC(=O)[C@H](CC(C)C)NC(=O)[C@H](CO)NC2=O)NC(=O)[C@H](CCCCN)NC(=O)[C@H](CC(=O)O)NC(=O)[C@H](CC(C)C)NC1=O)[C@@H](C)O` [NYBSP-1] (Ac-TIEEQAKT[S5]LDK[S5]NHEAEDLFYQ[S5]SLA[S5]WN-NH2; staple (Z) 9-13, 24-28), for which the IC50 was > 27.5 µM in data set [1], > 27.5 µM in data set [3], 4.1 ± 0.26 µM in data set [4] and 2.2 ± 0.14 µM in data set [5]. Also, in data set [7], the “% α-Helicity (185-260 nm)” value is listed as 94%. In data set [8], this molecule displayed an IC100 of 17.2 µM.
